Values of other authors in US20260293888A1, “METHODS OF TREATING MOLD” (priority 2023, published 2026).

flash point (TEG alone): 157 °C
boiling point (at a pressure of 101.325 kPa): 286.5 °C
miscibility with water (water): miscible with water
Compound: OCCOCCOCCO [Triethylene glycol, triethylene glycol]
vapor pressure (compared to water): relative low vapor pressure compared to water
